Measurements as given in US7205300B2, “Aryl fused azapolycyclic compounds” (Pfizer Inc, priority 1997, dated 2007).

Row | Compound | melting point
1 | Cl.c1ccc(-n2cnc3cc4c(cc32)C2CNCC4C2)cc1 (stereo not shown) | 210 to 213 °C
2 | Cc1nc2cc3c(cc2o1)C1CNCC3C1.Cl (stereo not shown) | > 250 °C
3 | Cl.Fc1cccc2c1C1CNCC2C1 (stereo not shown) | 269 to 271 °C
4 | Cc1nc2cc3c(cc2n1C)C1CNCC3C1.Cl (stereo not shown) | 225 to 230 °C
5 | CC(C)c1nc2cc3c(cc2o1)C1CNCC3C1.Cl (stereo not shown) | 249 to 251 °C
6 | Cl.c1nc2cc3c(cc2[nH]1)C1CNCC3C1 (stereo not shown) | > 250 °C
7 | Cl.O=[N+]([O-])c1ccc2c(c1)C1CNCC2C1 (stereo not shown) | 265 to 270 °C
8 | CC(C)Cn1cnc2cc3c(cc21)C1CNCC3C1.Cl (stereo not shown) | 147 to 150 °C
9 | Cl.N#Cc1ccc2c(c1)C1CNCC2C1 (stereo not shown) | 268 to 273 °C
10 | Cl.FC(F)(F)c1cccc2c1C1CNCC2C1 (stereo not shown) | 275 to 277 °C
11 | Cl.Fc1cc2c(cc1F)C1CNCC2C1 | 301 to 303 °C
12 | Cl.O=C(Nc1cc2c(cc1O)C1CNCC2C1)c1ccccc1F (stereo not shown) | 125 to 130 °C
13 | Cl.Oc1cccc2c1C1CNCC2C1 (stereo not shown) | 253 to 255 °C
14 | CC(=O)c1ccc2c(c1)C1CNCC2C1.Cl (stereo not shown) | 198 to 202 °C
15 | Cc1ccc2c(c1)C1CNCC2C1.Cl (stereo not shown) | 254 to 255 °C
16 | Cc1nc2cc3c(cc2n1-c1ccccc1)C1CNCC3C1.Cl (stereo not shown) | > 250 °C
17 | CCc1cnc2cc3c(cc2c1)C1CNCC3C1.Cl (stereo not shown) | 288 to 291 °C (dec.)
18 | Cl.Clc1cc2c(cc1Cl)C1CNCC2C1 | 283 to 291 °C
19 | Cc1ccc2cc3c(cc2n1)C1CNCC3C1.Cl (stereo not shown) | > 300 °C (dec.)
20 | CN1CC2CC(C1)c1cc3nccnc3cc12.Cl | > 250 °C
21 | Cl.Fc1ccc2c(c1)C1CNCC2C1 (stereo not shown) | 260 to 262 °C
22 | Cc1nc2cc3c(cc2n1CC(C)C)C1CNCC3C1.Cl (stereo not shown) | 129 to 130 °C
23 | CC(=O)Nc1ccc2c(c1)C1CNCC2C1.Cl (stereo not shown) | 225 to 230 °C
24 | Cl.Nc1ccc2c(c1)C1CNCC2C1 (stereo not shown) | 189 to 192 °C
25 | Cl.c1cnc2cc3c(cc2c1)C1CNCC3C1 (stereo not shown) | 260 °C (dec.)
26 | Cl.O=c1ccc2cc3c(cc2[nH]1)C1CNCC3C1 (stereo not shown) | 300 °C (dec.)
27 | Cl.c1ccc(-c2cccc3c2C2CNCC3C2)cc1 (stereo not shown) | 262 to 265 °C
28 | Cc1nc2cc3c(cc2s1)C1CNCC3C1.Cl (stereo not shown) | 183 to 184 °C
